Data from patent US12600725B2 (Memorial Sloan-Kettering Cancer Center, priority 2013, dated 2026).
Like-named read-outs stand apart in the source and are kept apart here.

Columns and labels:
Hsp90α [1] = target: T1, Hsp90α (Homo sapiens, UniProt P07900); settings: Richter et al. 2008; read-out: reported binding to Hsp90α; cited from earlier work
Hsp90β [2] = target: T2, Hsp90β (Homo sapiens, UniProt P08238); settings: Richter et al. 2008; read-out: reported binding to Hsp90β; cited from earlier work
T2 sequence (P08238 whole entry): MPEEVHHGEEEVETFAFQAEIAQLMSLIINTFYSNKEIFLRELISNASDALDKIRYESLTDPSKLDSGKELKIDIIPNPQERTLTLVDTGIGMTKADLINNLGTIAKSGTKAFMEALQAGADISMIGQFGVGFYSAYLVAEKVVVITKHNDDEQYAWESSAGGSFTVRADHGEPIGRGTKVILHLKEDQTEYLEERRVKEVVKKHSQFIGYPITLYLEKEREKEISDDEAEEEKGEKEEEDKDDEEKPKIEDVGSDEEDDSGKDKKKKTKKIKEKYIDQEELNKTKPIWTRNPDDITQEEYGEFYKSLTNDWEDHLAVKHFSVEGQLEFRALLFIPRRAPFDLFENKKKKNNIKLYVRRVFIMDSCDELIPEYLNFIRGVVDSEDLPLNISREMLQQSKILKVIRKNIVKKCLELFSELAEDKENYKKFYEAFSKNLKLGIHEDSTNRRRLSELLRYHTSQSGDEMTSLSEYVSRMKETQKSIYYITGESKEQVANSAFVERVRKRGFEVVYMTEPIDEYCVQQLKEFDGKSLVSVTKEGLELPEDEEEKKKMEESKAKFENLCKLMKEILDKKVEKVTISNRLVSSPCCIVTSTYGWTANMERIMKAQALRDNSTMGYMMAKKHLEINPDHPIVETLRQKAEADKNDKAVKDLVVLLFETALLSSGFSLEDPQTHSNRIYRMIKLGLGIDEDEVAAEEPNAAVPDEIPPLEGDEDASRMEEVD

Grp94 [3] = target: T3, Grp94 (Canis lupus familiaris, UniProt P41148)
T3 sequence (P41148 with tags, fused parts or gaps DELINS287-327GGGG): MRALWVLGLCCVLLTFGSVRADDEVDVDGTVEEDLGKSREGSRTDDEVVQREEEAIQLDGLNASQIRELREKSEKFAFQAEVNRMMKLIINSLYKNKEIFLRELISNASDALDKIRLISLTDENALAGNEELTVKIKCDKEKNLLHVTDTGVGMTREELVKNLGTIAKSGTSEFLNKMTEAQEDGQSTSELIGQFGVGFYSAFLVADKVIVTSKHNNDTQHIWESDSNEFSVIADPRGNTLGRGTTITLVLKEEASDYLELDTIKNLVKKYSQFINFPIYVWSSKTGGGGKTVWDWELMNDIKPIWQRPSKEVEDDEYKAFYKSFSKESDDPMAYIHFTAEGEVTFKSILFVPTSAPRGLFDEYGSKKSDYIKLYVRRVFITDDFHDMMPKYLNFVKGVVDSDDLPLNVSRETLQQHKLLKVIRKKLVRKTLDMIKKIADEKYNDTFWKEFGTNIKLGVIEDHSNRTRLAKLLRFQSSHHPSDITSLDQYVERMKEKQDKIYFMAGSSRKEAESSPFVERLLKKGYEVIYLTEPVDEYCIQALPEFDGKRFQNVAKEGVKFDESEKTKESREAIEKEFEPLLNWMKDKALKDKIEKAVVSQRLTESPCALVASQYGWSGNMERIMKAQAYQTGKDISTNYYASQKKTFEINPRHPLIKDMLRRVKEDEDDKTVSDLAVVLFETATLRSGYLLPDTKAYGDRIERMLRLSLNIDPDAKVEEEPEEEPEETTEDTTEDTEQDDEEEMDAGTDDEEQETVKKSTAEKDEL

Trap-1 [4] = target: T4, Trap-1 (Homo sapiens, UniProt Q12931); settings: read-out: Trap-1 IC50; 43a as FP probe
T4 sequence (Q12931 60-704): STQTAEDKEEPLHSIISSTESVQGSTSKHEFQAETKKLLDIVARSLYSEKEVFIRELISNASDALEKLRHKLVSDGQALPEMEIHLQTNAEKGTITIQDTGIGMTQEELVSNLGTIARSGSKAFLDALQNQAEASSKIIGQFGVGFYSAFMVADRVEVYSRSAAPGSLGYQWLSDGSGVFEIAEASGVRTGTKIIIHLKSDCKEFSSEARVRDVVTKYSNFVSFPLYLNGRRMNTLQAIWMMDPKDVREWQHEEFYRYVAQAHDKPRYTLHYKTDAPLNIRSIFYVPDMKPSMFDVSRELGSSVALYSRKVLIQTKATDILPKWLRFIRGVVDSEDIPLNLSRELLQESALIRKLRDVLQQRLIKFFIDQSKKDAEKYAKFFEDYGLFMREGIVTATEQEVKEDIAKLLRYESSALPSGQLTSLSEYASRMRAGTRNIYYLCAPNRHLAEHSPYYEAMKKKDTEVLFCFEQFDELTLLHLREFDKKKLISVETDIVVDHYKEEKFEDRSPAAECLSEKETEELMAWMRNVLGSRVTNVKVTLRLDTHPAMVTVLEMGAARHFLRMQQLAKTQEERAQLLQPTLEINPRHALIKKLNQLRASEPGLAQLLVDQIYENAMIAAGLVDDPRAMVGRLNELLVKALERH

Hsp90α [5] = target: T1, Hsp90α
Hsp90 = Hsp90 (Homo sapiens, UniProt P08238); settings: McLaughlin et al. 2004; read-out: reported interaction with Hsp90; cited from earlier work
Hsp90, sequence (P08238 whole entry): as the sequence (P08238 whole entry) above

Hsp90β [6] = target: T2, Hsp90β
Trap-1 [7] = target: T4, Trap-1; design: purchased Enzo Life Sciences ADI-SPP-848; settings: cited from earlier work
Grp94 [8] = target: T3, Grp94; assay: Hsp90 FP saturation binding assay of FP probes; design: other: 43a as FP probe; Grp94; apparent Kd; assay window; other: probe 115a; settings: saturation binding of FP probe
Procedure: (§1) We next determined, in a standard saturation binding experiment that measures ligand binding in the presence of varying concentration of protein, the ability of these ligands as probes for the Hsp90 paralogs (FIGS. 22b-c).
(§2) Hsp90 saturation binding assay. […] The assay window was calculated as the difference between the FP value recorded for the bound fluorescent tracer and the FP value recorded for the free fluorescent tracer (defined as mP-mPf).

Trap-1 [9] = target: T4, Trap-1; assay: Hsp90 FP saturation binding assay of FP probes; design: purchased Enzo Life Sciences ADI-SPP-848; settings: saturation binding of FP probe; read-out: apparent Kd
Procedure: as §1, §2

Hsp90β [10] = target: T2, Hsp90β; assay: Hsp90 FP saturation binding assay of FP probes; settings: saturation binding of FP probe; read-out: apparent Kd
Procedure: as §1, §2

Hsp90α [11] = target: T1, Hsp90α; assay: Hsp90 FP saturation binding assay of FP probes; settings: saturation binding of FP probe; read-out: apparent Kd
Procedure: as §1, §2

[12] = read-out: Grp94 IC50, 43a as FP probe
[13] = read-out: binding affinity (FP competition), probe 115a
[14] = read-out: Hsp90α IC50, 43a as FP probe
[15] = read-out: Hsp90β IC50, 43a as FP probe

Structure (SMILES): Nc1ncnc2c1ncn2[C@@H]1O[C@H](COP(=O)(O)OP(=O)(O)O)[C@@H](O)[C@H]1O [ADP]
- Kd (Hsp90α [1]): 51 µM
- Kd (Hsp90β [2]): 34 µM
- IC50 (Grp94 [3]; [12]): 11.4 µM
- IC50 (Grp94 [3]; [13]): 11.4 µM
- IC50 (Trap-1 [4]): 55.6 µM
- IC50 (Hsp90α [5]; [14]): 59.3 µM
- IC50 (Hsp90α [5]; [13]): 59 µM
- Kd (Hsp90): 41 µM
- IC50 (Hsp90β [6]; [15]): 42.2 µM
- IC50 (Hsp90β [6]; [13]): 42 µM

Structure (SMILES): Nc1ncnc2c1ncn2[C@@H]1O[C@H](COP(=O)(O)OP(=O)(O)OP(=O)(O)O)[C@@H](O)[C@H]1O [ATP]
- IC50 (Grp94 [3]; [12]): 3.24 µM
- IC50 (Grp94 [3]; [13]): 3.2 µM
- IC50 (Trap-1 [4]): 31.3 µM
- reported greater affinity of Trap-1 than Hsp90 (Trap-1 [7]): approximately 10 fold
- IC50 (Hsp90α [5]; [14]): 861 µM
- Kd (Hsp90): 840 µM
- IC50 (Hsp90β [6]; [15]): 894 µM

Structure (SMILES): C[C@@H](NCCCn1c(Sc2cc(Cl)cc(Cl)c2)nc2c(N)ncnc21)C1CC1 [Compound 40]
- assay window (Grp94 [8]): less than 100 mP
- Kd (Grp94 [8]; read-out: apparent Kd): 0.0307 µM
- Kd (Trap-1 [9]): 0.0058 µM
- Kd (Hsp90β [10]): 0.0028 µM
- Kd (Hsp90α [11]): 0.0039 µM
